The source of these data is US10898580B2, “Isoquinolidinobenzodiazepines” (priority 2015, dated 2021).

Values after ≈ are worked out from the molar mass of the structure shown.

In one experiment the test system is HL60 tumor cells. Briefly: Orthotopic HL60 AML xenograft model. It is filed as in vivo, NOD/SCID mice. Particulars: 1 mg/kg, day 23 after inoculation. The protocol:
Orthotopically engrafted HL60 tumor-bearing mice were treated with unconjugated C0 (1 mg/Kg) antibody and control ADC (3 mg/Kg) as compared with mice treated with C6-CLT-D202-ADC (3 mg/Kg). The percentage of human HL60 tumor cells in the bone marrow (left panel) and in the peripheral blood (right panel) is shown, the median bar and interquartile error bars are denoted for N=4-6 mice. The table (bottom) indicates the median, minimum, maximum, and interquartile percentage of human HL60 cells in the bone marrow and peripheral blood of treated mice.
Female 6-8 week-old NOD/SCID mice were sub-lethally irradiated with 2.5 Gy, and 5 million HL60 tumors were injected intravenously at one day post-irradiation into the mice. Following 6 days of tumor cell inoculation (˜0.1-1% engraftment in the bone marrow), mice were dosed 3 times, and once per week (q7DX3) with 3 mg/Kg of C6-CLT-D202 ADC or with the same amount of control C0-ADC. Following 23 days of tumor cell inoculation, bone, spleen, and peripheral blood were collected from the treated mice and total hematopoietic cells were isolated. The percentage of human cells in these tissues was determined by flow cytometry using anti-human CD33 and CD45 antibodies. Data were analyzed by Flowjo software, and plotted with Prism software.
Greater than 90% Tumor Growth Inhibition (TGI) was observed after administration with C6-CLT-D202 ADC.

The subject of a further experiment is HEL92.1.7. As to the kind of experiment: Growth inhibition by payloads, CellTiter-Glo cell viability. Format: cell-based. Particulars: Homo sapiens, HEL 92.1.7, MDR +. The protocol:
(§1) The cytotoxicity of the compounds was evaluated using the CellTiter-Glo Luminescent Cell Viability Assay (Promega Cat # G7573) as described in the manufacturer's instructions (Arduengo, M., Cell Notes, 2003, 5:15-17). This assay contains a reagent that lyses cells and generates a “glow-type” luminescent signal proportional to the amount of adenosine triphosphate (ATP) present, which is a measure of cell growth.
(§2) Cells were seeded at 1000 cells per well in 50 μL of culture media into tissue culture 96-well flat-bottom plates. The perimeter wells of the plate were not used and 200 μL of media was added to the perimeter wells to prevent evaporation during incubation. 50 μL of the compound tested at twice the final concentration were then added to the wells in triplicate. Plates were incubated at 37° C., 5% CO2 for 72 hours before adding 100 μL CellTiter-Glo reagent to each well (excluding perimeter wells). Plates were then incubated at room temperature on a shaker for 10 minutes. After incubation, 100 μL of the supernatants were transferred to a solid white 96-well plate and luminescence was measured with a spectrophotometer. Percent viability was calculated based on untreated control: % viability=(treated/untreated)*100.
(§3) GI50: Concentration of compound required for 50% cell growth inhibition.
(§4) The cytotoxic activity of compounds CLT-D201, CLT-D501, CLT-D601 was tested against various cell lines in comparison with a pyrrolobenzodiazepine dimer labeled as PBD1 (structurally identical to SGD-1882, Spirogen Ltd.), having a formula: […]
(In general: Cellular ATP, detected with luciferase, serves as a proxy for viable cell number.)

In the next experiment the test system is HL-60. Described as above. Format: cell-based. Particulars: Homo sapiens, MDR −. The protocol:
as §1, §2, §3, §4

For the next experiment, the system named is HNT-34. The experiment is described as above. It is filed as cell-based. Particulars: MDR +/−. The procedure:
as §1, §2, §3, §4

A further experiment has as its system KG1. Described as above. Particulars: Homo sapiens, KG-1, MDR +. Format: cell-based. The procedure:
as §1, §2, §3, §4

The subject of a further experiment is OCI-AML5. Described as above. It is filed as cell-based. Particulars: Homo sapiens, OCI-AML-5, MDR NA. The protocol: as §1, §2, §3, §4
Another experiment concerns SHI. The experiment is described as above. Particulars: MDR −. Format: cell-based. The procedure: as §1, §2, §3, §4
In a further experiment the test system is TF-1. Described as above. Format: cell-based. Particulars: Homo sapiens, MDR +. The procedure:
as §1, §2, §3, §4

A further experiment has as its system THP-1. Described as above. Format: cell-based. Particulars: Homo sapiens, MDR −. The procedure: as §1, §2, §3, §4

Regarding Palivizumab [C0], in the experiment on HL60 tumor cells (Blood), the “percentage of human HL60 cells, 25% Percentile” value is listed as 36.025%; the “percentage of human HL60 cells, 75% Percentile” value stood at 68.1%; the “percentage of human HL60 cells, Median” value is 56.5%; the “percentage of human HL60 cells, Minimum” value was found to be 30.4%. In addition, in the experiment with HL60 tumor cells (Bone marrow), the “percentage of human HL60 cells, 25% Percentile” value was 60.85%; the “percentage of human HL60 cells, 75% Percentile” value stood at 85.8%; the “percentage of human HL60 cells, Median” value turned out to be 72.95%; the “percentage of human HL60 cells, Minimum” value was 55.9%.
Broadly, the IC50 is the concentration that inhibits the measured activity by half. For the compound `COc1ccc(C2=CN3C(=O)c4cc(OC)c(OCCCOc5cc6c(cc5OC)C(=O)N5C=C(c7ccc(N)cc7)C[C@@]5(C)C=N6)cc4N=C[C@]3(C)C2)cc1` [PBD1], the IC50 with HEL92.1.7 turned out to be 0.00387 ng/mL; in the experiment on HL-60, 0.0028 ng/mL (≈ 0.00371 nM); with HNT-34 it was 0.00149 ng/mL (≈ 0.00198 nM); in the experiment with KG1 it was 0.66 ng/mL; with OCI-AML5 it was 0.00208 ng/mL (≈ 0.00276 nM); in the experiment on SHI, 0.00547 ng/mL (≈ 0.00725 nM). Further, the half-inhibitory concentration (IC50) worked out at 0.447 ng/mL with TF-1 and 0.0126 ng/mL (≈ 0.0167 nM) with THP-1.
For the compound `COc1cc2c(cc1OCCCOc1cc3c(cc1OC)C(=O)N1Cc4ccccc4CC1C=N3)N=CC1Cc3ccccc3CN1C2=O` (stereo not drawn) [CLT-D201], the IC50 came to 0.0404 ng/mL in the experiment with HEL92.1.7; 0.002 ng/mL (≈ 0.00305 nM) in the experiment on HL-60; 0.014 ng/mL (≈ 0.0213 nM) in the experiment on HNT-34; 2.45 ng/mL in the experiment on KG1; 0.00823 ng/mL (≈ 0.0125 nM) with OCI-AML5; 0.0211 ng/mL (≈ 0.0321 nM) in the experiment with SHI. For the same compound, the IC50 with TF-1 stood at 1.29 ng/mL; in the experiment with THP-1 it was 0.0291 ng/mL (≈ 0.0443 nM).
